How the values were obtained:
Assay type in all cases: biochemical
KLK4 [1] = target: T1, KLK4 (Homo sapiens, UniProt Q9Y5K2); experiment: KLK4 inactivation kinetics from progress curves (kobs vs inhibitor concentration); settings: for kapp KLK4: apparent second-order rate constant, substrate 250 μM; for Irreversible (KLK4): irreversible binding to KLK4, Yes/No
T1 construct: purchased Viktor Magdolen (TUM), supplied by an academic laboratory
In short: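 Enzyme was added at time zero to inhibitor plus substrate (250 μM final), and aminomethylcoumarine absorbance was followed under pseudo-first-order conditions ([I]0>>[E]0) with under 10% substrate conversion. Progress curves were fitted to the integrated rate equation to give kobs. kapp is the slope of kobs versus [I]0 and depends on substrate concentration.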

tPA (recombinant) = target: T2, tPA (recombinant) (Homo sapiens, UniProt P00750); experiment: tPA inhibition, chromogenic substrate Biophen CS-05(88); settings: Tris buffer pH 8.3; read-out: IC50 tPA
T2 construct: purchased Nodia
T2 sequence (P00750 36-562, species assumed): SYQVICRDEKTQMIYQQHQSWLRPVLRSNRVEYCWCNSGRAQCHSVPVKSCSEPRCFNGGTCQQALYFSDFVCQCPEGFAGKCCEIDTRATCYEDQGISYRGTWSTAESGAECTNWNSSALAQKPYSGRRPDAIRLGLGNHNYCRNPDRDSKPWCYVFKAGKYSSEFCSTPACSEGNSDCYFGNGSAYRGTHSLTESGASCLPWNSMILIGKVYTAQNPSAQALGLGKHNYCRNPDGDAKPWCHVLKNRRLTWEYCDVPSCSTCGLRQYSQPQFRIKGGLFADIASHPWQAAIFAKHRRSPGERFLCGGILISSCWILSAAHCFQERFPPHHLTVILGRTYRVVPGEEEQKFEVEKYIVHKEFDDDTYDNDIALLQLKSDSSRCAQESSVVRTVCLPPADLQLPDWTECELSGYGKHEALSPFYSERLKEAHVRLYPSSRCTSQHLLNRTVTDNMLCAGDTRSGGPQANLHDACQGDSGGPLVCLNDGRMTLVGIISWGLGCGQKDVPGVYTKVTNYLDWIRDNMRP
In short: (§1)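 IC50 values for KLK1 and KLK2 were determined by the same procedure. For tPA and neutrophil elastase, chromogenic substrate cleavage was followed by absorbance at 405 nm.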

KLK4 [2] = target: T1, KLK4; experiment: KLK4 enzymatic inhibition, fluorogenic substrate Boc-Val-Pro-Arg-AMC; settings: 15 min pre-incubation at 37° C., Tris buffer pH 8.3; read-out: IC50 KLK4
AcHE = AcHE (Homo sapiens, UniProt P22303); experiment: AcHE inhibition; settings: read-out: IC50 AcHE
Sequence of AcHE (P22303 32-614): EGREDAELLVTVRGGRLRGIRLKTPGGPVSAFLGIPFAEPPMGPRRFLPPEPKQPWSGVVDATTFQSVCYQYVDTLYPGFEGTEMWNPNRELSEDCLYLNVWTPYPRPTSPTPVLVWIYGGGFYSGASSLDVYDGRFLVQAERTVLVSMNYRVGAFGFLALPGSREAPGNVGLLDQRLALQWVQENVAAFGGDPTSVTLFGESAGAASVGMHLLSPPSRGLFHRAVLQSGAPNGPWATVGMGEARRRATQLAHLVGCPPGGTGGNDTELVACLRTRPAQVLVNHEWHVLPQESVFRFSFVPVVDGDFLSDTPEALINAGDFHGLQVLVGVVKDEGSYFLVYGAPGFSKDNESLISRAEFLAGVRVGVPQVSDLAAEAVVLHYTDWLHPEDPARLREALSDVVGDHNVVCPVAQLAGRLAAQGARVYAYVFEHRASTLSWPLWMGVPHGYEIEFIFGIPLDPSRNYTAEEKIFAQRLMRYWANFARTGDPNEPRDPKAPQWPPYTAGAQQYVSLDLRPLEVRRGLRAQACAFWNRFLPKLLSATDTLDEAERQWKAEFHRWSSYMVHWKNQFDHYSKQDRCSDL

[3] = target: T3, Neurtophil Elastase(human) (Homo sapiens, UniProt P08246); experiment: Neutrophil elastase inhibition, chromogenic substrate MeOSuc-Ala-Ala-Pro-Val-pNA; settings: Tris buffer pH 7.8; read-out: IC50 HNE
T3 construct: purchased Enzo-life sciences
T3 sequence (P08246 30-267): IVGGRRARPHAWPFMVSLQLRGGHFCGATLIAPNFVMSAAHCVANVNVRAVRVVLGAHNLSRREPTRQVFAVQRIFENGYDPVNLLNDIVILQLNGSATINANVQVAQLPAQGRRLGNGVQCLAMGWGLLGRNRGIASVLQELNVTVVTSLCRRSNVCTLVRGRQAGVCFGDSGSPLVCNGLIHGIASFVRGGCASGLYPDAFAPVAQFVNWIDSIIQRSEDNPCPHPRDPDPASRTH
Description: The IC50 values For KLK1, KLK2 and KLK8 were obtained in a similar way. For plasmin, tPA, thrombin, Fxa, HNE, Plasma kallikrein Chromogenic substrates were used (absorption: 405 nm). (KLK2, KLK4, KLK8 were supplied by Viktor Magdolen TUMunich (TUM)).

Matriptase = target: T4, Matriptase (Homo sapiens, UniProt Q9Y5Y6); experiment: Matriptase inhibition; settings: Matriptase; read-out: IC50 MAT
T4 sequence (Q9Y5Y6 1-855): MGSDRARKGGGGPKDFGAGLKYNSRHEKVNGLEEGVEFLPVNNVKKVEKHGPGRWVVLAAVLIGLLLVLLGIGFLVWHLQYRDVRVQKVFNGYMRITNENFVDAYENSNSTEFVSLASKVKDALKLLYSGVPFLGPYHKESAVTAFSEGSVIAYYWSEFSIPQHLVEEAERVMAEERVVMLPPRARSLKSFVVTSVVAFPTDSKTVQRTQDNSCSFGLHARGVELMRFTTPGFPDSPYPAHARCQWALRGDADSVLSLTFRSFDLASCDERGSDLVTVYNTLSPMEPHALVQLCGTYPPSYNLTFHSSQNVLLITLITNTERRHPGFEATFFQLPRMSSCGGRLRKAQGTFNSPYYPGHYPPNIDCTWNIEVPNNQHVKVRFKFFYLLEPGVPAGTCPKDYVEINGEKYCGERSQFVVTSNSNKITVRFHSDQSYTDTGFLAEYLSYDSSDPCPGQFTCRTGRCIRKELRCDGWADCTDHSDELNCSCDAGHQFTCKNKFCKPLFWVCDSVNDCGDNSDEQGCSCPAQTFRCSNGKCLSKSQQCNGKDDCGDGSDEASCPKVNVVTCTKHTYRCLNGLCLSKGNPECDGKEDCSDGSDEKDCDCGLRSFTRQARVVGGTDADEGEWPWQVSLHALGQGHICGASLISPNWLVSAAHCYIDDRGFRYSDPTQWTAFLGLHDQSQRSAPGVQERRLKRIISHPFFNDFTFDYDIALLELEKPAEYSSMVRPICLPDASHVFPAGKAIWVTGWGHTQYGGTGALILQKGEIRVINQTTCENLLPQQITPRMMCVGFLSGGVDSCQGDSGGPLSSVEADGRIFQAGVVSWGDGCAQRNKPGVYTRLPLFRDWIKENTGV

Thrombine (human plasma) = target: T5, Thrombine (human plasma) (Homo sapiens, UniProt P00734); experiment: Thrombin inhibition, chromogenic substrate Biophen CS-21(66); settings: Thrombin; Tris buffer pH 8.3; read-out: IC50 THR
T5 construct: purchased Sigma-Aldrich; host or cells: human plasma

KLK1 (human) = target: T6, KLK1 (human) (Homo sapiens, UniProt P06870); experiment: KLK1 inhibition, fluorogenic substrate H-Pro-Phe-Arg-AMC; settings: Tris buffer pH 7.8; read-out: IC50 KLK1
T6 construct: purchased Prospec
T6 sequence (P06870 25-262): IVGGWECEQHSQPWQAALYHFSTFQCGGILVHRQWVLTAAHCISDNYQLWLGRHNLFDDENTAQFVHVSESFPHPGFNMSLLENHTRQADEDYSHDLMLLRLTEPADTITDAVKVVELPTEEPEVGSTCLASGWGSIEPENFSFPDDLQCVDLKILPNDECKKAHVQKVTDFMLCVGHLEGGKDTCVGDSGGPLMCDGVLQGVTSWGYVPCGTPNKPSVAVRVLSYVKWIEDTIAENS
In short: as §1

T1 sequence (Q9Y5K2 31-254): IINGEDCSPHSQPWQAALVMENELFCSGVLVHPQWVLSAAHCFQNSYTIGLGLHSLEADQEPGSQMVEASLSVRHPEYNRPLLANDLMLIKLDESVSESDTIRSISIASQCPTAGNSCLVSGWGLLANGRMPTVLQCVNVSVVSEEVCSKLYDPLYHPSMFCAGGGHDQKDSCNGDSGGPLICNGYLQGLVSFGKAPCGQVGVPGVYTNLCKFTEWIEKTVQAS

`COCCOCCOC(=O)NC(c1ccc(NC(=N)N)cc1)P(=O)(Oc1ccccc1)Oc1ccccc1.O=C(O)C(F)(F)F` (stereo not drawn) [Compound 28, 2-(2-methoxyethoxy)ethyl((diphenoxyphosphoryl)(4-guanidinophenyl)methyl) carbamate 2,2,2-trifluoroacetate] was tested, and the “kapp KLK4” value (KLK4 [1]) was 34000 M⁻¹ s⁻¹, the “Irreversible (KLK4)” value (KLK4 [1]) was “Yes/” and the IC50 (tPA (recombinant)) was over 250 µM. It also gave an IC50 (KLK4 [2]) of under 0.1 µM, an IC50 (AcHE) of 10 to 250 µM and an IC50 [3] of over 250 µM. For the same compound, the IC50 (Matriptase) was 2.5 to 10 µM, the IC50 (Thrombine (human plasma)) was over 250 µM and the IC50 (KLK1 (human)) was 10 to 250 µM.

In the case of `N=C(N)Nc1ccc(C(NC(=O)OCCOc2ccccc2)P(=O)(Oc2ccccc2)Oc2ccccc2)cc1.O=C(O)C(F)(F)F` (stereo not drawn) [Compound 30, 2-phenoxyethyl((diphenoxyphosphoryl)(4-guanidinophenyl)methyl)carbamate 2,2,2-trifluoroacetate], the “kapp KLK4” value (KLK4 [1]) is reported as 15000 M⁻¹ s⁻¹, the “Irreversible (KLK4)” value (KLK4 [1]) is reported as “Yes/” and the IC50 (tPA (recombinant)) is reported as over 250 µM. The IC50 (KLK4 [2]) was under 0.1 µM, the IC50 (AcHE) was 10 to 250 µM and the IC50 [3] was over 250 µM. It also gave an IC50 (Matriptase) of 2.5 to 10 µM, an IC50 (Thrombine (human plasma)) of over 250 µM and an IC50 (KLK1 (human)) of 2.5 to 10 µM.

Source: patent US10017527B2, “KLK4 inhibitors” (Universiteit Antwerpen, priority 2014, dated 2018)
